Test in all cases: KinomeScan profiling
Common to all, as to format: binding

Test [1] addresses T1, NEK1 (Homo sapiens, UniProt Q96PY6).
T1 sequence (Q96PY6 1-1258): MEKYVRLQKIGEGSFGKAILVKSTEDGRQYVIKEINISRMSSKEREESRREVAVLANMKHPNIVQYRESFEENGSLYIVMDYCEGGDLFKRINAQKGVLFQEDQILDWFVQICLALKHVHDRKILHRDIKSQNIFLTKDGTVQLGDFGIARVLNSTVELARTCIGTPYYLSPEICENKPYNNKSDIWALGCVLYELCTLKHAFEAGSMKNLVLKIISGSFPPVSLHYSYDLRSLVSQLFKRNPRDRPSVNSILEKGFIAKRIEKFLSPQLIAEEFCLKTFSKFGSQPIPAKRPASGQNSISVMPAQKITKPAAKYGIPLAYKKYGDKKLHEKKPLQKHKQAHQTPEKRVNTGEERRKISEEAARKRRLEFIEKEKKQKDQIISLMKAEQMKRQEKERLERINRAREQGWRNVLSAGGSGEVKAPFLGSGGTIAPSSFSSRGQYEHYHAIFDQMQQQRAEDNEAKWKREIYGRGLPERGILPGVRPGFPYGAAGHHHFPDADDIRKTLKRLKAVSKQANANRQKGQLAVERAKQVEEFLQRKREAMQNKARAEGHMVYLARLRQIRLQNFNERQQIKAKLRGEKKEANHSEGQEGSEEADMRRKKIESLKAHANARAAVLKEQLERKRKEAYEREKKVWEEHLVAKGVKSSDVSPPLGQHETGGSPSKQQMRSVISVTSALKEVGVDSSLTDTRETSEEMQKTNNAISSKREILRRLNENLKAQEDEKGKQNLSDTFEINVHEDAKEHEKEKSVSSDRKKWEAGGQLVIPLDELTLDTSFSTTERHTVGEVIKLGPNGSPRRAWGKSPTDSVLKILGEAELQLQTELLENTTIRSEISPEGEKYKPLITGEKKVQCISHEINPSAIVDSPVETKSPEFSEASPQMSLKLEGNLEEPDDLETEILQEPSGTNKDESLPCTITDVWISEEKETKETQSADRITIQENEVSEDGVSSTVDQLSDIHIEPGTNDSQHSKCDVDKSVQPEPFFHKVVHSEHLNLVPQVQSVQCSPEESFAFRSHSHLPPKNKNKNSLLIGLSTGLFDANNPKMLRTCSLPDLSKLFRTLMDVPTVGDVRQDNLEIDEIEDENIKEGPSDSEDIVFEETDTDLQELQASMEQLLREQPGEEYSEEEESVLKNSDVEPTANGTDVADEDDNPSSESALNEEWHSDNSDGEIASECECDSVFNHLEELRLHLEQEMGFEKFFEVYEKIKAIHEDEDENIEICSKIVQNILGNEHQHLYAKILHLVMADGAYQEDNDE
As to conditions: NEK1, 1 μM; read-out: % control. The method, boiled down:
(§1)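 Percent-of-control values derive from RLU, calculated as (test − positive)/(negative − positive) × 100, where DMSO defines 100% and a positive control compound defines 0%. Each compound was tested at 1 μM in the 468-kinase panel; sub-35% readings indicate activity.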

The target in test [2] is MET(M1250T) (Homo sapiens, UniProt P08581, M1250T). Conditions: read-out: % control. The method, boiled down:
as §1

For test [3], the target named is T2, SGK2 (Homo sapiens, UniProt Q9HBY8).
T2 construct: purchased KinomeScan® (panel service)
T2 sequence (Q9HBY8 1-367): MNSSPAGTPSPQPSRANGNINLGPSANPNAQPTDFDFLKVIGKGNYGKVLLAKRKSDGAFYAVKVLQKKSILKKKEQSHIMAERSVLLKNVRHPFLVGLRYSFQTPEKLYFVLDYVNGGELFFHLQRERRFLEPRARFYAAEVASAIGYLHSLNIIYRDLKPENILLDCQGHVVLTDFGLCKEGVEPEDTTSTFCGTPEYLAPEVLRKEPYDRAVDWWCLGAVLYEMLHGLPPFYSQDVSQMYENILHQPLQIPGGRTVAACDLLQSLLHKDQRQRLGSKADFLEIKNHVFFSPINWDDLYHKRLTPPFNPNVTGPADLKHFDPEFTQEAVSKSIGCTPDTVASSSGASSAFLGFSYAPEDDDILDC
Conditions: SGK2, 1 μM; read-out: % control. The method, boiled down: as §1

Test [4] has as its target T3, ADCK4 (Homo sapiens, UniProt Q96D53).
T3 construct: purchased KinomeScan®
T3 sequence (Q96D53 1-544): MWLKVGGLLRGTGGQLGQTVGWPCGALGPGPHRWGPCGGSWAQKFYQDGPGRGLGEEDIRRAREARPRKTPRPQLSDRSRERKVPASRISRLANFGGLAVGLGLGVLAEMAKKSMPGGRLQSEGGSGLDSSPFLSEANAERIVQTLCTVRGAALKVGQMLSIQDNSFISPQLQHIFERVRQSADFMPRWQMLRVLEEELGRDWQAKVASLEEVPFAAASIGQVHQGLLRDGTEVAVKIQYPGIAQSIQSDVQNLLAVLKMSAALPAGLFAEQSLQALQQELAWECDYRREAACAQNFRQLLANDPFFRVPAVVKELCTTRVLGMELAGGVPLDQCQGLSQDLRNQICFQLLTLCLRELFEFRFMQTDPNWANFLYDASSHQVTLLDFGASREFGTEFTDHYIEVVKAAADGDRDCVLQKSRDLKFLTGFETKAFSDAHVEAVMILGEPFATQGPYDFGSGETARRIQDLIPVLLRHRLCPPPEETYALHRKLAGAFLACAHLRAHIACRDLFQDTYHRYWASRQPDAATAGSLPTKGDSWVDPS
As to conditions: ADCK4, 1 μM; read-out: % control. The essentials: as §1

MET(M1250T), sequence (P08581 25-1390 M1250T): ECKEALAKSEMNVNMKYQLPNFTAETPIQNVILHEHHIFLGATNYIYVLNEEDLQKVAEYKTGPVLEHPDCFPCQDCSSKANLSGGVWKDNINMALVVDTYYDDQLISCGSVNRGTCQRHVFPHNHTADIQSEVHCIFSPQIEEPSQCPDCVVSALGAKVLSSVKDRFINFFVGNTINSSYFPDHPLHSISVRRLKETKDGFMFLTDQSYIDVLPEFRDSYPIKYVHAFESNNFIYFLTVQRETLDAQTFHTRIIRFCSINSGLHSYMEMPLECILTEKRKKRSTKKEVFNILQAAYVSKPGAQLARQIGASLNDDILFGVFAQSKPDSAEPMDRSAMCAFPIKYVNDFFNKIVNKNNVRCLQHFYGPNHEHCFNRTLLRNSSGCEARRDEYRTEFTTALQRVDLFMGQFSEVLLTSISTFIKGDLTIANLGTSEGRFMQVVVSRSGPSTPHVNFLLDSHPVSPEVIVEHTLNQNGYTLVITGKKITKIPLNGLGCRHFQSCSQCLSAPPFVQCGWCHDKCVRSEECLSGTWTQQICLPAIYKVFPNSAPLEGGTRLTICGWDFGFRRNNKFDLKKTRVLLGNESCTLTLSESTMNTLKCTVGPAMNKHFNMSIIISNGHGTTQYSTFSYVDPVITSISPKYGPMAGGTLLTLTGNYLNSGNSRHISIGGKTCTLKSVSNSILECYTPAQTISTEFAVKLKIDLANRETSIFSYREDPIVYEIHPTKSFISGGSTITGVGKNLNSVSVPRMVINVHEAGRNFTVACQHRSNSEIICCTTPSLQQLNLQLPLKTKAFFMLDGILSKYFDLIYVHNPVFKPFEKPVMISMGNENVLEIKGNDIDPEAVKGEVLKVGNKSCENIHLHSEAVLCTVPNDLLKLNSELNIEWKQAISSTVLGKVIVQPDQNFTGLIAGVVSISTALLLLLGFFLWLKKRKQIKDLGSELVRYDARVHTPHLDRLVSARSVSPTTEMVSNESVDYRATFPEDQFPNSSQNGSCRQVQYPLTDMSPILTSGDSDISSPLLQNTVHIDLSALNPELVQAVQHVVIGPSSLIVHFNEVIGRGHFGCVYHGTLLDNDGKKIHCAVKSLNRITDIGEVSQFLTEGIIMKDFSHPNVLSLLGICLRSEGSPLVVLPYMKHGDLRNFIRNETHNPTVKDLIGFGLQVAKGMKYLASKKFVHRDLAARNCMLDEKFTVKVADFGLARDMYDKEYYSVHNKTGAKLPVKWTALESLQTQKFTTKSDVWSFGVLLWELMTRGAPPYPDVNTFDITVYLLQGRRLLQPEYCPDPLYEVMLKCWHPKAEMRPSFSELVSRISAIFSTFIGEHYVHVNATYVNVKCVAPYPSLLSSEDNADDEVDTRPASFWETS

For `CNc1c(-c2ccc(C(=O)N3CCC(N4CCOCC4)CC3)cc2)cnc2[nH]cc(Cl)c12` [Compound 96, (4-(3-chloro-4-(methylamino)-1H-pyrrolo[2,3-b]pyridin-5-yl)phenyl)(4-morpholinopiperidin-1-yl)methanone], the remaining binding at 1 µM was found to be 100% in test [1], 78% in test [2], 30% in test [3] and 100% in test [4].
For the compound `O=C(c1ccc(-c2cnc3[nH]cc(Cl)c3c2NC2CCCC2)cc1)N1CCC(N2CCOCC2)CC1` [Compound 101, (4-(3-chloro-4-(cyclopentylamino)-1H-pyrrolo[2,3-b]pyridin-5-yl)phenyl)(4-morpholinopiperidin-1-yl)methanone], the remaining binding at 1 µM stood at 100% in test [1], 23% in test [2], 65% in test [3] and 100% in test [4].
As to `CNc1c(-c2cnn([C@H]3CCN(C(C)=O)C[C@@H]3F)c2)cnc2[nH]cc(Cl)c12` [Compound 77, 1-((3S,4S)-4-(4-(3-chloro-4-(methylamino)-1H-pyrrolo[2,3-b]pyridin-5-yl)-1H-pyrazol-1-yl)-3-fluoropiperidin-1-yl)ethan-1-one], the remaining binding at 1 µM stood at 96% in test [1], 49% in test [2], 43% in test [3] and 100% in test [4].
